Columns and labels:
[1] = system: MCF-7 human breast cancer cells; set-up: method as in earlier work; settings: granted patent CN102727470; cited from earlier work
[2] = system: human choriocarcinoma JEG-3 cells; assay: WST-1 cell proliferation assay (cytotoxicity); type: cell-based; settings: from 1.0 × 10^−6 M to lower concentrations; 24 h
Experimental: Dual-luciferase reporter assays were carried out primarily according to the method described in a previous study. In short, full-length sequences of human oestrogen receptor α and β were amplified by RT-PCR using mRNA from MCF-7 (Supplementary Table 3), and inserted into a pSVSPORT1 (Invitrogen); the resulting constructs were termed pSVhERα and pSVhERβ. A reporter plasmid containing ERE was constructed by inserting four tandem repeats of an ERE of Xenopus laevis vitellogenin A2 into a pGL4.23 vector (Promega), and was termed pGL4-ERE-luc. All of the plasmids constructed were confirmed by sequence analysis. […] The assays were performed in quadruplicate, and the results were expressed as the fold induction of the control after normalization against Renilla luciferase activity. Sigmoidal dose-effect curves were calculated using the GraphPad Prism 4 software. The IC50 values were calculated on the basis of the sigmoidal dose-effect curves. […] After another 24 h, 20 μl of 5 mM WST-1 with 0.2 mM 1-Methoxy-5-methylphenazinium methylsulfate was added for 4 h before the absorbance at 490 nm was measured with a microplate reader (iMark, BioRad). […]
Cell viability was determined using the cell proliferation reagent WST-1 (DOJINDO, Mashiki, Japan). […]
1-Methoxy-5-methylphenazinium methylsulfate was added for four hours before the absorbance at 490 nm was measured with a microplate reader (iMark, BioRad). […]

**Q.** With `Oc1ccc(C2(c3ccc(O)cc3)c3ccccc3-c3ccccc32)cc1` [BHPF, 9,9-bis(4-hydroxyphenyl)-fluorene] as the molecule, how does the “proliferation of MCF-7 human breast cancer cells” value [1] read?
**A.** Its value is “inhibited the proliferation”.

**Q.** And the cytotoxicity [2]?
**A.** The cytotoxicity was “no obvious cytotoxicity”.

Source: PMC5339874, “Fluorene-9-bisphenol is anti-oestrogenic and may cause adverse pregnancy outcomes in mice” (Nature Communications, 2017)
